Test results from patent US11339130B1 (Blade Therapeutics, Inc., priority 2016, dated 2022).

How the values were obtained:
Type in all cases: biochemical
Human Calpain 1/NS1 = target: T1, Human Calpain 1/NS1 (Homo sapiens, UniProt P07384); assay: Calpain inhibition continuous fluorescence (FRET) assay, Human Calpain 1/NS1; conditions: Column A; read-out: Human Calpain 1/NS1 IC50
T1 sequence (P07384 1-714): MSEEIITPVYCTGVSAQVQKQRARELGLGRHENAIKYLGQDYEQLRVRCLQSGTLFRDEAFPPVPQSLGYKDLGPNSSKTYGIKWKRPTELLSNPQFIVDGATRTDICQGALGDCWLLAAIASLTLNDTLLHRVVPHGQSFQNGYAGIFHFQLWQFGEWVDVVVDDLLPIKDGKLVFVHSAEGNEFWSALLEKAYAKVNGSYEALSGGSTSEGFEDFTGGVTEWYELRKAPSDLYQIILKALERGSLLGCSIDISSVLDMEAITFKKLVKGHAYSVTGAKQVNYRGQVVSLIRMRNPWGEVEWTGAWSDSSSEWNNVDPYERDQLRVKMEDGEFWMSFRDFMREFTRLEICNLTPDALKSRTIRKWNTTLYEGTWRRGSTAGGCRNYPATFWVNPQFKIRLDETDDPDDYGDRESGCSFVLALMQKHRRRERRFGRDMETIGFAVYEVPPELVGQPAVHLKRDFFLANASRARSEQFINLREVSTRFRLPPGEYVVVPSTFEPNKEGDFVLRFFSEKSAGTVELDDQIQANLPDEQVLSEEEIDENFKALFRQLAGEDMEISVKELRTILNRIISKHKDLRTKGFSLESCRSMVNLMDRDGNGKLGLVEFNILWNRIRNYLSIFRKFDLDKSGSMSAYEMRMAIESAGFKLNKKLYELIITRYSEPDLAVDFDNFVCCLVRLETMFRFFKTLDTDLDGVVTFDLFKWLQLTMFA
T1 sequence (P04632 1-268 partner): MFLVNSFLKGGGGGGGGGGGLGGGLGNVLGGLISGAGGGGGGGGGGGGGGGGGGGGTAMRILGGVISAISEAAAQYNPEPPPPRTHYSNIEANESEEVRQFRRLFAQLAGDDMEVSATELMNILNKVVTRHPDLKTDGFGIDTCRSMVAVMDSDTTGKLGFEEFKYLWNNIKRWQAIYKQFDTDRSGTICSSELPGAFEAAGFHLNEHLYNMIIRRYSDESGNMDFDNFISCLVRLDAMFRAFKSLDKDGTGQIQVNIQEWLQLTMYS
How it was run: (§1)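 Inhibitors were preincubated with calpain in 50 mM Tris pH 7.5, 100 mM NaCl, 1 mM DTT at 25C. Reactions were started with 5-FAM/QXL 520 FRET peptide substrate plus CaCl2 and read at 490/520 nm for 10 min. IC50s came from 4-parameter fits of slope rates (1-5 min).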

Human Calpain 2/NS1 = target: T2, Human Calpain 2/NS1 (Homo sapiens, UniProt P17655); assay: Calpain inhibition continuous fluorescence (FRET) assay, Human Calpain 2/NS1; conditions: Column B; read-out: Human Calpain 2/NS1 IC50
T2 sequence (P17655 1-700): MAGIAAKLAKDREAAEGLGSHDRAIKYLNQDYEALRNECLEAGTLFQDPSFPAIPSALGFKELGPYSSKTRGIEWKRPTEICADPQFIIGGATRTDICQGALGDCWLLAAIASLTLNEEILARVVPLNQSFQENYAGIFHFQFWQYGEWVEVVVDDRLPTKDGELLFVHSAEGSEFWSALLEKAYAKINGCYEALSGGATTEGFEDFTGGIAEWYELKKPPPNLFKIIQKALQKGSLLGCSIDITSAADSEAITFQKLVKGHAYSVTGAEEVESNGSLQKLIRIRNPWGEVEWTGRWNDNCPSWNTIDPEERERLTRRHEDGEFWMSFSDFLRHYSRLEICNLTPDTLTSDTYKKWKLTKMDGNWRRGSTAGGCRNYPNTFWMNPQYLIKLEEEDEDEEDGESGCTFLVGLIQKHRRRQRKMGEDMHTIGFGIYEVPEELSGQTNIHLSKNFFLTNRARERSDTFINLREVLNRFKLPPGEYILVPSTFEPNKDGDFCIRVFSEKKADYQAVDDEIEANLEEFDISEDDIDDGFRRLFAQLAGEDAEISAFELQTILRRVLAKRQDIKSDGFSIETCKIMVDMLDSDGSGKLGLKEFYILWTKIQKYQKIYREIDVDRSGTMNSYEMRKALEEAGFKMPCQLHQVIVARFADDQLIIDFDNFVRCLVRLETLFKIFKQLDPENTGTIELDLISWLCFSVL
T2 sequence (P04632 1-268 partner): T1 sequence (P04632 1-268 partner)
How it was run: as §1

Human Calpain 9/NS1 = target: T3, Human Calpain 9/NS1 (Homo sapiens, UniProt O14815); assay: Calpain inhibition continuous fluorescence (FRET) assay, Human Calpain 9/NS1; conditions: Column C; read-out: Human Calpain 9/NS1 IC50
T3 sequence (O14815 1-690): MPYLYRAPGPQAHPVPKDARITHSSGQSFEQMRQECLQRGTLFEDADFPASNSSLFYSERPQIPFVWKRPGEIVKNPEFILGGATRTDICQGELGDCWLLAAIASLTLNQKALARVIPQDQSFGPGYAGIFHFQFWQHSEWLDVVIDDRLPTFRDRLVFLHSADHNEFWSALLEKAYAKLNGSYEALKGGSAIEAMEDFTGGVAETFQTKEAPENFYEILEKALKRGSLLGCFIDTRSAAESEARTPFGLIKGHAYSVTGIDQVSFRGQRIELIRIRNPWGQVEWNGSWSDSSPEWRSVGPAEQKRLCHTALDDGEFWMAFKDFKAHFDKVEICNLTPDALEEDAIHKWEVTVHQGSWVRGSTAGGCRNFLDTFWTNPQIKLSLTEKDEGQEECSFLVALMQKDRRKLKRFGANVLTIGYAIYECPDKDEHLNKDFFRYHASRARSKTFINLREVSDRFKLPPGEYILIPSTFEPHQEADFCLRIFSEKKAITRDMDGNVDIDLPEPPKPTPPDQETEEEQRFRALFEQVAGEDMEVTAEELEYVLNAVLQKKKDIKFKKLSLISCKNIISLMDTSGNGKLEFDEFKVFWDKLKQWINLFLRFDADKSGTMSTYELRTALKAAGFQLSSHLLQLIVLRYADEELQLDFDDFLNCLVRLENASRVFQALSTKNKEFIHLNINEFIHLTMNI
T3 sequence (P04632 1-268 partner): T1 sequence (P04632 1-268 partner)
How it was run: as §1

IC50 (Human Calpain 1/NS1)	IC50 (Human Calpain 2/NS1)	IC50 (Human Calpain 9/NS1)	Compound
< 3 µM	3 to 10 µM	> 10 µM	Cc1nsc(-c2ccccc2)c1C(=O)N[C@@H](Cc1ccccc1)C(=O)C(=O)NC1CC1 [Compound 116, (S)—N-(4-(cyclopropylamino)-3,4-dioxo-1-phenylbutan-2-yl)-3-methyl-5-phenylisothiazole-4-carboxamide]
3 to 10 µM	3 to 10 µM	3 to 10 µM	CC(C)c1cc(C(=O)N[C@@H](Cc2ccccc2)C(=O)C(N)=O)n(-c2ccccc2)n1 [Compound 117, (S)—N-(4-amino-3,4-dioxo-1-phenylbutan-2-yl)-3-isopropyl-1-phenyl-1H-pyrazole-5-carboxamide]
< 3 µM	< 3 µM	< 3 µM	Cc1cc(C(=O)N[C@@H](Cc2ccccc2)C(=O)C(N)=O)n(-c2nccc3ccccc23)n1 [Compound 119, (S)—N-(4-amino-3,4-dioxo-1-phenylbutan-2-yl)-1-(isoquinolin-1-yl)-3-methyl-1H-pyrazole-5-carboxamide]
< 3 µM	< 3 µM	< 3 µM	Cc1cc(C(=O)N[C@@H](Cc2ccccc2)C(=O)C(=O)NC2CC2)n(-c2ccc(C(F)(F)F)cn2)n1 [Compound 122, (S)—N-(4-(cyclopropylamino)-3,4-dioxo-1-phenylbutan-2-yl)-3-methyl-1-(5-(trifluoromethyl)pyridin-2-yl)-1H-pyrazole-5-carboxamide]
< 3 µM	< 3 µM	< 3 µM	Cc1cc(C)nc(-n2nc(C)cc2C(=O)N[C@@H](Cc2ccccc2)C(=O)C(N)=O)c1 [Compound 123, (S)—N-(4-amino-3,4-dioxo-1-phenylbutan-2-yl)-1-(4,6-dimethylpyridin-2-yl)-3-methyl-1H-pyrazole-5-carboxamide]
< 3 µM	< 3 µM	< 3 µM	Cc1nc(-c2ccccc2)c(C(=O)N[C@@H](Cc2ccccc2)C(=O)C(=O)NC2CC2)s1 [Compound 124, (S)—N-(4-(cyclopropylamino)-3,4-dioxo-1-phenylbutan-2-yl)-2-methyl-4-phenylthiazole-5-carboxamide]
> 10 µM	> 10 µM	> 10 µM	Cc1cc(C(=O)N[C@@H](Cc2ccccc2)C(=O)C(=O)NC2CC2)nn1-c1nc(-c2ccccc2)cs1 [Compound 125, (S)—N-(4-(cyclopropylamino)-3,4-dioxo-1-phenylbutan-2-yl)-5-methyl-1-(4-phenylthiazol-2-yl)-1H-pyrazole-3-carboxamide]
< 3 µM	< 3 µM	< 3 µM	Cc1cc(C(=O)N[C@@H](Cc2ccccc2)C(=O)C(=O)NC2CC2)n(-c2cncnc2)n1 [Compound 127]
3 to 10 µM	> 10 µM	3 to 10 µM	CC(C)(C)c1cc(C(=O)N[C@@H](Cc2ccccc2)C(=O)C(N)=O)n(-c2ccccc2)n1 [Compound 128, (S)—N-(4-amino-3,4-dioxo-1-phenylbutan-2-yl)-3-(tert-butyl)-1-phenyl-1H-pyrazole-5-carboxamide]
3 to 10 µM	> 10 µM	3 to 10 µM	NC(=O)C(=O)[C@H](Cc1ccccc1)NC(=O)c1[nH]ncc1-c1ccccc1 [Compound 129, (S)—N-(4-amino-3,4-dioxo-1-phenylbutan-2-yl)-4-phenyl-1H-pyrazole-5-carboxamide]
< 3 µM	< 3 µM	< 3 µM	Cc1cc(C(=O)N[C@@H](Cc2ccccc2)C(=O)C(=O)NC2CC2)n(-c2cccnc2)n1 [Compound 132, (S)—N-(4-(cyclopropylamino)-3,4-dioxo-1-phenylbutan-2-yl)-3-methyl-1-(pyridin-3-yl)-1H-pyrazole-5-carboxamide]
< 3 µM	< 3 µM	< 3 µM	Cc1cc(C(=O)N[C@@H](Cc2ccccc2)C(=O)C(N)=O)n(-c2cncc3ccccc23)n1 [Compound 133, (S)—N-(4-amino-3,4-dioxo-1-phenylbutan-2-yl)-1-(isoquinolin-4-yl)-3-methyl-1H-pyrazole-5-carboxamide]
3 to 10 µM	3 to 10 µM	3 to 10 µM	Cc1cc(C(=O)N[C@@H](Cc2ccccc2)C(=O)C(=O)NC2CC2)n(-c2cncc3ccccc23)n1 [Compound 134, (S)—N-(4-(cyclopropylamino)-3,4-dioxo-1-phenylbutan-2-yl)-1-(isoquinolin-4-yl)-3-methyl-1H-pyrazole-5-carboxamide]
< 3 µM	< 3 µM	> 10 µM	O=C(NC1CC1)C(=O)[C@H](Cc1ccccc1)NC(=O)c1sc(C2CC2)nc1-c1ccccc1 [Compound 135, (S)-2-cyclopropyl-N-(4-(cyclopropylamino)-3,4-dioxo-1-phenylbutan-2-yl)-4-phenylthiazole-5-carboxamide]
> 10 µM	> 10 µM	> 10 µM	CC(C)(C)c1cc(C(=O)N[C@@H](Cc2ccccc2)C(=O)C(=O)NC2CC2)n(-c2ccccc2)n1 [Compound 137, (S)-3-(tert-butyl)-N-(4-(cyclopropylamino)-3,4-dioxo-1-phenylbutan-2-yl)-1-phenyl-1H-pyrazole-5-carboxamide]
< 3 µM	< 3 µM	< 3 µM	Cc1cc(C(=O)N[C@@H](Cc2ccccc2)C(=O)C(N)=O)n(-c2cncnc2)n1 [Compound 138, (S)—N-(4-amino-3,4-dioxo-1-phenylbutan-2-yl)-3-methyl-1-(pyrimidin-5-yl)-1H-pyrazole-5-carboxamide]
< 3 µM	< 3 µM	< 3 µM	Cc1noc(-n2cc3ccccc3n2)c1C(=O)N[C@@H](Cc1ccccc1)C(=O)C(N)=O [Compound 139, (S)—N-(4-amino-3,4-dioxo-1-phenylbutan-2-yl)-5-(2H-indazol-2-yl)-3-methylisoxazole-4-carboxamide]
< 3 µM	< 3 µM	< 3 µM	NC(=O)C(=O)[C@H](Cc1ccccc1)NC(=O)c1ncoc1-c1ccccc1 [Compound 148, (S)—N-(4-amino-3,4-dioxo-1-phenylbutan-2-yl)-5-phenyloxazole-4-carboxamide]
